Results on 42 molecules are retold here after patent US11319303B2 (WIGEN BIOMEDICINE TECHNOLOGY (SHANGHAI) CO., LTD., priority 2017, dated 2022).

Bounds are passed on as bounds.

The first test addresses LC3B (Homo sapiens, UniProt Q9GZQ8). Briefly: Fluorescence Polarization (FP) Assay: displacement of FITC-labeled peptide from GST-LC3B. Format: binding.
Details: not given
The protocol:
The compounds of the present invention for regulating the autophagy-related protein LC3B were tested by Fluorescence Polarization (FP) Assay.
Fluorescence Polarization (FP) Assay Test
Background: Fluorescence polarisation rises when a labelled molecule tumbles more slowly, as on binding a larger partner.
The IC50 is the concentration at which inhibition is half-maximal. Molecule `CN(C)C=C1C(=O)CC(C2CCCCC2)CC1=O` (stereo not drawn) [Compound 262, 4-((dimethylamino)methylene)-[1,1′-bi(cyclohexane)]-3,5-dione] displayed an IC50 of under 3 µM.

The test is the same for the next values; noted with them: Fluorescence Polarization assay; GST-LC3B 180 nM, FITC-labeled peptide 18 nM, 25° C.; read-out: IC50.
Turning to `CN(C)C=C1C(=O)CC(c2ccc(N(C)C)cc2)CC1=O` (stereo not drawn) [Compound 242, 2-((dimethylamino)methylene)-5-(4-(dimethylamino)phenyl) cyclohexane-1,3-dione], the IC50 was in the range of 3 to 15 µM.

For `COc1ccc(C2CC(=O)C(=CNCCN3CCN(C(=O)N4CCOCC4)CC3)C(=O)C2)cc1` (stereo not drawn) [Compound 246, 5-(4-methoxyphenyl)-2-(((2-(4-(morpholine-4-carbonyl)piperazin-1-yl)ethyl)amino)-methylene) cyclohexane-1,3-dione], the IC50 is under 3 µM.

In the case of `CN(C)C(=O)N1CCN(CCNC=C2C(=O)CC(c3ccc(Cl)cc3)CC2=O)CC1` (stereo not drawn) [Compound 248, 4-(2-(((4-(4-chlorophenyl)-2,6-dioxocyclo-hexylidene)methyl)amino)ethyl)-N,N-dimethylpiperazine-1-carboxamide], the IC50 is under 3 µM.

Regarding `O=C1CC(c2ccc(Cl)cc2)CC(=O)C1=CNCCN1CCN(C(=O)N2CCOCC2)CC1` (stereo not drawn) [Compound 249, 5-(4-chlorophenyl)-2-(((2-(4-(morpholine-4-carbonyl)piperazin-1-yl)ethyl)amino)methylene) cyclohexane-1,3-dione], the IC50 was under 3 µM.

With `CN(C)C=C1C(=O)CC(c2ccc3c(c2)CCO3)CC1=O` (stereo not drawn) [Compound 251, 5-(2,3-dihydrobenzofuran-5-yl)-2-((dimethylamino)methylene) cyclohexane-1,3-dione], the IC50 is under 3 µM.

As for `CN(C)C=C1C(=O)CC(c2ccc(C(F)(F)F)cc2)CC1=O` (stereo not drawn) [Compound 254, 2-((dimethylamino)methylene)-5-(4-(trifluoromethyl)phenyl) cyclohexane-1,3-dione], the IC50 was under 3 µM.

On to `CN(C)C=C1C(=O)CC(c2cccc(C(F)(F)F)c2)CC1=O` (stereo not drawn) [Compound 255, 2-((dimethylamino)methylene)-5-(3-(trifluoromethyl)phenyl) cyclohexane-1,3-dione], for which the IC50 is under 3 µM.

`CC(=O)Nc1ccc(C2CC(=O)C(=CN(C)C)C(=O)C2)cc1` (stereo not drawn) [Compound 256, N-(4-(4-((dimethylamino)methylene)-3,5-dioxocyclohexyl)phenyl) acetamide]: the IC50 was under 3 µM.

In the case of `CN(C)C=C1C(=O)CC(c2cccnc2)CC1=O` (stereo not drawn) [Compound 257, 2-((dimethylamino)methylene)-5-(pyridin-3-yl)cyclohexane-1,3-dione], the IC50 fell in the range of 15 to 100 µM.

As for `CN(C)C=C1C(=O)CC(c2ccc3[nH]ncc3c2)CC1=O` (stereo not drawn) [Compound 259, 2-((dimethylamino)methylene)-5-(1H-indazol-5-yl)cyclohexane-1,3-dione], the IC50 is under 3 µM.

With `O=C1CC(c2ccc(C(=O)O)cc2)CC(=O)C1=CNCCN1CCOCC1` (stereo not drawn) [Compound 260, 4-(4-(((2-morpholinoethyl)amino)methylene)-3,5-dioxocyclohexyl) benzoic acid], the IC50 is under 3 µM.

As for `CN(C)C=C1C(=O)CC(c2cccs2)CC1=O` (stereo not drawn) [Compound 264, 2-((dimethylamino)methylene)-5-(thiophen-2-yl)cyclohexane-1,3-dione], the IC50 was under 3 µM.

With `CN(C)C=C1C(=O)CC(c2ccc(Cl)nc2)CC1=O` (stereo not drawn) [Compound 266, 5-(6-chloropyridin-3-yl)-2-((dimethylamino)methylene) cyclohexane-1,3-dione], the IC50 is 3 to 15 µM.

Regarding `CN(C)C=C1C(=O)CC(c2cccc(C(=O)NCCc3ccccc3)c2)CC1=O` (stereo not drawn) [Compound 267, 3-(4-((dimethylamino)methylene)-3,5-dioxocyclohexyl)-N-phenethylbenzamide], the IC50 lay in the range of 3 to 15 µM.

`CN(C)C=C1C(=O)CC(c2cccc(C(=O)NCCCCc3ccccc3)c2)CC1=O` (stereo not drawn) [Compound 269, 3-(4-((dimethylamino)methylene)-3,5-dioxocyclohexyl)-N-(4-phenylbutyl)-benzamide]: the IC50 was in the range of 3 to 15 µM.

Regarding `CN(C)C=C1C(=O)CC(c2cccc3[nH]ccc23)CC1=O` (stereo not drawn) [Compound 271, 2-((dimethylamino)methylene)-5-(1H-indol-4-yl)cyclohexane-1,3-dione], the IC50 was under 3 µM.

Consider `CN(C)C=C1C(=O)CC(Cc2ccccc2)CC1=O` (stereo not drawn) [Compound 272, 5-benzyl-2-((dimethylamino)methylene) cyclohexane-1,3-dione], for which the IC50 was in the range of 3 to 15 µM.

For `CC(C)CNC(=O)C1CC(=O)C(=CN(C)C)C(=O)C1` (stereo not drawn) [Compound 273, 4-((dimethylamino)methylene)-N-isobutyl-3,5-dioxocyclohexane-1-carboxamide], the IC50 lay in the range of 15 to 100 µM.

As to `CCCNC(=O)C1CC(=O)C(=CN(C)C)C(=O)C1` (stereo not drawn) [Compound 274, 4-((dimethylamino)methylene)-3,5-dioxo-N-propylcyclohexane-1-carboxamide], the IC50 lay in the range of 15 to 100 µM.

For the molecule `CC(C)CC1CC(=O)C(=CN(C)C)C(=O)C1` (stereo not drawn) [Compound 276, 2-((dimethylamino)methylene)-5-isobutylcyclo-hexane-1,3-dione], the IC50 lay in the range of 15 to 100 µM.

Regarding `CN(C)C=C1C(=O)CC(c2cccc3ccccc23)CC1=O` (stereo not drawn) [Compound 277, 2-((dimethylamino)methylene)-5-(naphthalen-1-yl)cyclohexane-1,3-dione], the IC50 is under 3 µM.

On to `CN(C)C=C1C(=O)CC(c2ccc3ccccc3c2)CC1=O` (stereo not drawn) [Compound 278, 2-((dimethylamino)methylene)-5-(naphthalen-2-yl)cyclohexane-1,3-dione], for which the IC50 was under 3 µM.

With `CCCCn1cccc1C1CC(=O)C(=CN(C)C)C(=O)C1` (stereo not drawn) [Compound 279, 5-(1-butyl-1H-pyrrol-2-yl)-2-((dimethylamino)methylene) cyclohexane-1,3-dione], the IC50 was in the range of 3 to 15 µM.

`CN(C)C=C1C(=O)CC(c2cccc3c2CCCC3)CC1=O` (stereo not drawn) [Compound 280, 2-((dimethylamino)methylene)-5-(5,6,7,8-tetrahydro-naphthalen-1-yl)cyclohexane-1,3-dione]: the IC50 is under 3 µM.

Regarding `CN(C)C=C1C(=O)CC(c2ccc3[nH]ccc3c2)CC1=O` (stereo not drawn) [Compound 281, 2-((dimethylamino)methylene)-5-(1H-indol-5-yl)cyclohexane-1,3-dione], the IC50 was under 3 µM.

For `CN(C)C=C1C(=O)CC(c2csc3ccccc23)CC1=O` (stereo not drawn) [Compound 282, 5-(benzo[b]thiophen-3-yl)-2-((dimethylamino)methylene) cyclohexane-1,3-dione], the IC50 was under 3 µM.

For the molecule `CN(C)C=C1C(=O)CC(c2c[nH]c3ccccc23)CC1=O` (stereo not drawn) [Compound 283, 2-((dimethylamino)methylene)-5-(1H-indol-3-yl)cyclohexane-1,3-dione], the IC50 is under 3 µM.

In the case of `CC(C)Cn1cccc1C1CC(=O)C(=CN(C)C)C(=O)C1` (stereo not drawn) [Compound 284, 2-((dimethylamino)methylene)-5-(1-isobutyl-1H-pyrrol-2-yl)cyclohexane-1,3-dione], the IC50 was 3 to 15 µM.

Regarding `CN(C)C=C1C(=O)CC(c2ccnc3ccccc23)CC1=O` (stereo not drawn) [Compound 285, 2-((dimethylamino)methylene)-5-(quinolin-4-yl)cyclohexane-1,3-dione], the IC50 lay within 3 to 15 µM.

On to `CN(C)C=C1C(=O)CC(c2n[nH]c3ccccc23)CC1=O` (stereo not drawn) [Compound 286, 2-((dimethylamino)methylene)-5-(1H-indazol-3-yl)cyclohexane-1,3-dione], for which the IC50 was under 3 µM.

Take `CN(C)C=C1C(=O)CC(c2cncc3ccccc23)CC1=O` (stereo not drawn) [Compound 287, 2-((dimethylamino)methylene)-5-(isoquinolin-4-yl)cyclohexane-1,3-dione]: the IC50 lay within 3 to 15 µM.

For `CN(C)C=C1C(=O)CC(c2cccn2Cc2ccccc2)CC1=O` (stereo not drawn) [Compound 288, 5-(1-benzyl-1H-pyrrol-2-yl)-2-((dimethylamino)methylene) cyclohexane-1,3-dione], the half-inhibitory concentration (IC50) was 3 to 15 µM.

On to `Cc1ccccc1Cc1ccccc1C1CC(=O)C(=CN(C)C)C(=O)C1` (stereo not drawn) [Compound 289, 2-((dimethylamino)methylene)-5-(2-(2-methylbenzyl)phenyl) cyclohexane-1,3-dione], for which the IC50 was 3 to 15 µM.

`Cc1cccc(Cc2ccccc2C2CC(=O)C(=CN(C)C)C(=O)C2)c1` (stereo not drawn) [Compound 290, 2-((dimethylamino)methylene)-5-(2-(3-methylbenzyl)phenyl) cyclohexane-1,3-dione]: the IC50 lay within 3 to 15 µM.

`Cc1ccc(Cc2ccccc2C2CC(=O)C(=CN(C)C)C(=O)C2)cc1` (stereo not drawn) [Compound 291, 2-((dimethylamino)methylene)-5-(2-(4-methylbenzyl)phenyl) cyclohexane-1,3-dione]: the IC50 was in the range of 3 to 15 µM.

As for `Cc1ccc2c(C3CC(=O)C(=CN(C)C)C(=O)C3)c[nH]c2c1` (stereo not drawn) [Compound 293, 2-((dimethylamino)methylene)-5-(6-methyl-1H-indol-3-yl)cyclohexane-1,3-dione], the IC50 fell in the range of 3 to 15 µM.

`CN(C)C=C1C(=O)CC(c2cn(C)c3ccccc23)CC1=O` (stereo not drawn) [Compound 294, 2-((dimethylamino)methylene)-5-(1-methyl-1H-indol-3-yl)cyclohexane-1,3-dione]: the IC50 is under 3 µM.

For the molecule `CN(C)C=C1C(=O)CC(c2cccc3c2ccn3C)CC1=O` (stereo not drawn) [Compound 295, 2-((dimethylamino)methylene)-5-(1-methyl-1H-indol-4-yl)cyclohexane-1,3-dione], the IC50 was in the range of 3 to 15 µM.

As to `Cc1[nH]c2ccccc2c1C1CC(=O)C(=CN(C)C)C(=O)C1` (stereo not drawn) [Compound 296, 2-((dimethylamino)methylene)-5-(2-methyl-1H-indol-3-yl)cyclohexane-1,3-dione], the IC50 was under 3 µM.

`Cc1cccc2c(C3CC(=O)C(=CN(C)C)C(=O)C3)c[nH]c12` (stereo not drawn) [Compound 297, 2-((dimethylamino)methylene)-5-(7-methyl-1H-indol-3-yl)cyclohexane-1,3-dione]: the IC50 is under 3 µM.

On to `Cc1cccc2[nH]cc(C3CC(=O)C(=CN(C)C)C(=O)C3)c12` (stereo not drawn) [Compound 298, 2-((dimethylamino)methylene)-5-(4-methyl-1H-indol-3-yl)cyclohexane-1,3-dione], for which the half-maximal inhibitory concentration (IC50) was under 3 µM.
